Experimental data as given in patent US20240239784A1, “INDOLE COMPOUNDS AND METHODS OF USE” (GENZYME CORPORATION, priority 2021, published 2024).

Tested on: NBD1
Test: Aggregation analysis of NBD1 thermal stability by differential static light scattering (DSLS)
Format: binding, Human
Details: compound at 100 μM; ΔTagg versus DMSO control
Description: Purified recombinant NBD1 was produced using previously described methods (A. Schmidt, J. L. Mendoza, P. J. Thomas (2011) Biochemical and Biophysical Approaches to Probe CFTR Structure (365-376) M. D. Amaral, K. Kunzelmann (eds.), Cysic Fibrosis, Methods in Molecular Biology 741, Springer Science+Business Media). The effect of test compounds on thermal stability of NBD1 was evaluated by differential static light scattering (DSLS) using the Harbinger Stargazer-384 instrument (Epiphyte Three, Toronto, Canada). Test compounds were dissolved and diluted to desired concentrations in 100% DMSO. The compounds or DMSO controls (100 nL) were stamped into wells of a […] low volume optical plate (Corning Inc., Corning, NY) using the Echo 555 acoustic liquid handler (Labcyte Inc., San Jose, CA).
NBD1 protein was diluted to 0.2 mg/ml in S200 buffer (50 mM Tris-HCl, 150 mM NaCl, 5 mM MgCl2, 2 mM ATP, 2 mM DTT, pH7.6) containing 1% glycerol. 10 uL of protein solution was aliquoted into the 384-well plate harboring the test compounds and 10 uL mineral oil was overlayed onto the protein solution, using the epMotion robotic liquid handler (Eppendorf North America, Hauppauge, NY). After placing into the Stargazer instrument, the plate was heated at 1° C. per minute to 70° C. Images were captured from 25° C. to 70° C. every 0.5° C. At the end of the experiment run, instrument software integrated image files and analyzed data automatically. A […] regression curve was generated for each well, representing the increase in light scattering over time. A temperature of aggregation (Tagg) was calculated based on the inflection point of the curve. To better compare data across experiments the average Tagg for DMSO control wells was calculated and subtracted from values for wells containing compounds to obtain a “ΔTagg” value. These ΔTagg values reflect stabilizing efficacy of the compounds.

Row | Structure (SMILES) | DSLS NBD1/3D Human Stability delta-T (° C.) @ 100 (μM)
1 | CN(C)CCNC(c1ccccc1)c1nnc(-c2cccc(Oc3ccc4[nH]ccc4n3)c2)[nH]1 (stereo not shown) [Example 24, N1-((5-(3-((1H-Pyrrolo[3,2-b]pyridin-5-yl)oxy)phenyl)-4H-1,2,4-triazol-3-yl)(phenyl)methyl)-N2,N2-dimethylethane-1,2-diamine] | B (4-8° C.)
2 | CC(O)(c1ccccc1)c1c[nH]c(-c2cc(Oc3c(F)cc4[nH]ccc4c3CC(F)F)ccc2F)n1 (stereo not shown) [Example 25, 1-(2-(5-((4-(2,2-Difluoroethyl)-6-fluoro-1H-indol-5-yl)oxy)-2-fluorophenyl)-1H-imidazol-4-yl)-1-phenylethan-1-ol] | B (4-8° C.)
3 | O=C(O)c1c(Oc2cccc(-c3ncc(C(O)c4ccccc4)[nH]3)c2)ccc2[nH]ncc12 (stereo not shown) [Example 27, 5-(3-(5-(Hydroxy(phenyl)methyl)-1H-imidazol-2-yl)phenoxy)-1H-indazole-4-carboxylic acid] | C (≤4° C.)
4 | CNC(=O)CNC(=O)c1c(Oc2cccc(-c3ncc(C(O)c4ccccc4)[nH]3)c2)ccc2[nH]ncc12 (stereo not shown) [Example 28, 5-(3-(5-(Hydroxy(phenyl)methyl)-1H-imidazol-2-yl)phenoxy)-N-(2-(methylamino)-2-oxoethyl)-1H-indazole-4-carboxamide] | B (4-8° C.)
5 | c1ccc(Cc2nnc(-c3cncc(Oc4ccc5[nH]ccc5c4)c3)[nH]2)cc1 [Example 29, 5-((5-(5-Benzyl-4H-1,2,4-triazol-3-yl)pyridin-3-yl)oxy)-1H-indole] | C (≤4° C.)
6 | O=C(O)Cc1c[nH]c2ccc(Oc3cccc(-c4nnc(Cc5ccccc5)[nH]4)c3)cc12 [Example 30, 2-(5-(3-(5-Benzyl-4H-1,2,4-triazol-3-yl)phenoxy)-1H-indol-3-yl)acetic acid] | C (≤4° C.)
7 | [O-][S+](c1ccccc1)c1cnc(-c2cccc(Oc3ccc4[nH]ccc4c3)c2)[nH]1 (stereo not shown) [Example 31, 5-(3-(5-(Phenylsulfinyl)-1H-imidazol-2-yl)phenoxy)-1H-indole] | B (4-8° C.)
8 | O=S(=O)(c1ccccc1)c1cnc(-c2cccc(Oc3ccc4[nH]ccc4c3)c2)[nH]1 [Example 32, 5-(3-(5-(Phenylsulfonyl)-1H-imidazol-2-yl)phenoxy)-1H-indole] | B (4-8° C.)
9 | O=C(c1cccc(-c2nnc(Cc3ccccc3)[nH]2)c1)c1ccc2[nH]ccc2c1 [Example 34, (3-(5-Benzyl-4H-1,2,4-triazol-3-yl)phenyl)(1H-indol-5-yl)methanone] | C (≤4° C.)
10 | O=C(O)CC(c1cccc(-c2nnc(Cc3ccccc3)[nH]2)c1)c1ccc2[nH]ccc2c1 (stereo not shown) [Example 37, 3-(3-(5-Benzyl-4H-1,2,4-triazol-3-yl)phenyl)-3˜(1H-indol-5-yl)propanoic acid] | C (≤4° C.)
11 | NC(=O)CC(c1cccc(-c2nnc(Cc3ccccc3)[nH]2)c1)c1ccc2[nH]ccc2c1 (stereo not shown) [Example 38, 3-(3-(5-Benzyl-4H-1,2,4-triazol-3-yl)phenyl)-3-(1H-indol-5-yl)propanamide] | C (≤4° C.)
12 | CC(O)(c1ccccc1)c1cnc(-c2cccc(Sc3ccc4[nH]ccc4c3)c2)[nH]1 (stereo not shown) [Example 39, 1-(2-(3-((1H-Indol-5-yl)thio)phenyl)-1H-imidazol-5-yl)-1-phenylethan-1-ol] | C (≤4° C.)
13 | CC(O)(c1ccccc1)c1cnc(-c2cccc([S+]([O-])c3ccc4[nH]ccc4c3)c2)[nH]1 (stereo not shown) [Example 40, 1-(2-(3-((1H-Indol-5-yl)sulfinyl)phenyl)-1H-imidazol-5-yl)-1-phenylethan-1-ol] | C (≤4° C.)
14 | O=C1NCc2c[nH]c3ccc(Oc4cccc(-c5nnc(Cc6ccccc6)[nH]5)c4)c1c23 [Example 42, 6-(3-(5-Benzyl-4H-1,2,4-triazol-3-yl)phenoxy)-3,4-dihydropyrrolo[4,3,2-de]isoquinolin-5(1H)-one] | C (≤4° C.)
15 | c1ccc(Cc2nnc(-c3cccc(Oc4ccc5[nH]cc6c5c4CNC6)c3)[nH]2)cc1 [Example 43, 6-(3-(5-Benzyl-4H-1,2,4-triazol-3-yl)phenoxy)-1,3,4,5-tetrahydropyrrolo[4,3,2-de]isoquinoline] | C (≤4° C.)
16 | Nc1cnc(-c2nnc(Cc3ccccc3)[nH]2)cc1Oc1ccc2[nH]ccc2c1 [Example 44, 4-((1H-Indol-5-yl)oxy)-6-(5-benzyl-4H-1,2,4-triazol-3-yl)pyridin-3-amine] | B (4-8° C.)

Row | Structure (SMILES) | DSLS NBD1/3D Human Stability delta-T (° C.) @ 100 (μM)
17 | c1ccc(Cc2nnc(-c3cccc(Oc4ccc5[nH]cc6c5c4CNCC6)c3)[nH]2)cc1 [Example 46, 9-(3-(5-Benzyl-4H-1,2,4-triazol-3-yl)phenoxy)-2,3,4,6-tetrahydro-1H-azepino[5,4,3-cd]indole] | C (≤4° C.)
18 | c1ccc(Cc2coc(-c3cccc(Oc4ccc5[nH]ccc5c4)c3)n2)cc1 [Example 47, 2-(3-((1H-Indol-5-yl)oxy)phenyl)-4-benzyloxazole] | C (≤4° C.)
19 | OCc1c(Oc2cccc(-c3nc(Cc4ccccc4)cs3)c2)ccc2[nH]ccc12 [Example 48, (5-(3-(4-Benzylthiazol-2-yl)phenoxy)-1H-indol-4-yl)methanol] | C (≤4° C.)
20 | Nc1ccc(-c2n[nH]c(Cc3ccccc3)n2)cc1Oc1ccc2[nH]ccc2c1 [Example 49, 2-((1H-Indol-5-yl)oxy)-4-(5-benzyl-1H-1,2,4-triazol-3-yl)aniline] | B (4-8° C.)
21 | CC(=O)NCc1c(Oc2cccc(-c3nnc(Cc4ccccc4)[nH]3)c2)ccc2[nH]ccc12 [Example 50, N-((5-(3-(5-Benzyl-4H-1,2,4-triazol-3-yl)phenoxy)-1H-indol-4-yl)methyl)acetamide] | B (4-8° C.)
22 | NC(=O)Cc1c(Oc2cccc(-c3nnc(Cc4ccccc4)[nH]3)c2)ccc2[nH]ccc12 [Example 51, 2-(5-(3-(5-Benzyl-4H-1,2,4-triazol-3-yl)phenoxy)-1H-indol-4-yl)acetamide] | B (4-8° C.)
23 | OC(c1ccccc1)c1cnc(-c2cccc(Oc3ccc4[nH]ccc4n3)c2)[nH]1 (stereo not shown) [Example 52, (2-(3-((1H-Pyrrolo[3,2-b]pyridin-5-yl)oxy)phenyl)-1H-imidazol-5-yl)(phenyl)methanol] | B (4-8° C.)
24 | CC(O)(c1ccccc1)c1cnc(-c2cccc(Oc3ccc4[nH]ccc4n3)c2)[nH]1 (stereo not shown) [Example 53, 1-(2-(3-((1H-Pyrrolo[3,2-b]pyridin-5-yl)oxy)phenyl)-1H-imidazol-5-yl)-1-phenylethan-1-ol] | B (4-8° C.)
25 | CN(C)CCNC(c1ccccc1)c1c[nH]c(-c2cccc(Oc3ccc4[nH]ccc4n3)c2)n1 (stereo not shown) [Example 54, N1-((2-(3-((1H-pyrrolo[3,2-b]pyridin-5-yl)oxy)phenyl)-1H-imidazol-5-yl)(phenyl)methyl)-N2,N2-dimethylethane-1,2-diamine] | B (4-8° C.)
26 | C[S+]([O-])c1c(Oc2cccc(-c3ncc(C(O)c4ccccc4)[nH]3)c2)ccc2[nH]ccc12 (stereo not shown) [Example 55, (2-(3-((4-(Methylsulfinyl)-1H-indol-5-yl)oxy)phenyl)-1H-imidazol-5-yl)(phenyl)methanol] | B (4-8° C.)
27 | CS(=O)(=O)NC(=O)Cc1c(Oc2cccc(-c3nnc(Cc4ccccc4)[nH]3)c2)ccc2[nH]ccc12 [Example 56, 2-(5-(3-(5-Benzyl-4H-1,2,4-triazol-3-yl)phenoxy)-1H-indol-4-yl)-N-(methylsulfonyl)acetamide] | A (T ≥8° C.)
28 | Cn1nc(-c2cccc(Oc3ccc4[nH]ccc4c3C(N)=O)c2)nc1Cc1ccccc1 [Example 57, 5-(3-(5-Benzyl-1-methyl-1H-1,2,4-triazol-3-yl)phenoxy)-1H-indole-4-carboxamide] | B (4-8° C.)
29 | O=C(O)CCc1c(Oc2cccc(-c3nnc(Cc4ccccc4)[nH]3)c2)ccc2[nH]ccc12 [Example 58, 3-(5-(3-(5-Benzyl-4H-1,2,4-triazol-3-yl)phenoxy)-1H-indol-4-yl)propanoic acid] | A (T ≥8° C.)
30 | CS(=O)(=O)NC(=O)CCc1c(Oc2cccc(-c3nnc(Cc4ccccc4)[nH]3)c2)ccc2[nH]ccc12 [Example 59, 3-(5-(3-(5-Benzyl-4H-1,2,4-triazol-3-yl)phenoxy)-1H-indol-4-yl)-N-(methylsulfonyl)propanamide] | B (4-8° C.)
31 | O=C(Cc1c(Oc2cccc(-c3nnc(Cc4ccccc4)[nH]3)c2)ccc2[nH]ccc12)NS(=O)(=O)C(F)(F)F [Example 60, 2-(5-(3-(5-Benzyl-4H-1,2,4-triazol-3-yl)phenoxy)-1H-indol-4-yl)-N-((trifluoromethyl)sulfonyl)acetamide] | A (T ≥8° C.)
